The values below come from US20220125745A1, “PHARMACEUTICAL COMPOSITION FOR CO-ADMINISTRATION OF ACIDOSIS-INDUCING DRUG” (HAIM BIO CO., LTD., priority 2018, published 2022).

Test [1] deals with A549 cells (cancer cells). Put plainly: Lactate assay (luminescence) in A549 cells, candidate substance alone or combined with a substance that causes lactic acidosis. It counts as cell-based. As to conditions: for activity at 50 µM: Homo sapiens. The method, then: (§1) To identify the effects of administration of the candidate substances for lactic acidosis treatment as described in Example 1 in combination with the above-mentioned substances that cause lactic acidosis, A549 cells (cancer cells) or L132 cells (normal cells) were respectively seeded in 96- or 24-well plates at a concentration of 1×10^4 or 3×10^5 cells/well, and incubation was performed overnight. Administration of the candidate substance for acidosis treatment in combination with the substance that causes lactic acidosis was performed and incubation was further performed for 24 hours. For the candidate substances for acidosis treatment, each substance was administered at a uniform concentration of 50 μM; and for the substances that cause lactic acidosis, metformin was administered at 1 to 100 μM, isoniazid was administered at 1 to 500 μM, berberine was administered at 10 μM, linezolid was administered at 200 μM, and phenformin was administered at 100 μM. All substances were dissolved in dimethyl sulfoxide (DMSO, Sigma-Aldrich Corporation, St. Louis, Mo., USA), and the substances to be administered in combination were administered simultaneously. Subsequently, 50 μl of the cell culture solution obtained by being diluted with Dulbecco's Phosphate-Buffered Saline (DPBS; Wellgene, Korea), and 50 μl of the lactate assay reaction buffer (Promega, Madison, Wis., USA) were mixed and the mixture was added in a 96-well plate. Reaction was allowed to proceed at room temperature for 1 hour. Then, luminescence was measured with a spectrophotometer (Synergy HTX Multi-Reader; BioTek, Winooski, Vt., USA). At the same time, the number of cells in each sample was measured with a cell viability analysis kit (Cell Counting Kit-8; Dojindo Molecular Technologies, Inc., Kumamoto, Japan), and calculation was performed so that the lactic acid measurement value in each sample could be compared with that in the negative control for the same number of cells.

For test [2], the system named is L132 cells (normal cells). The experiment in a line: Lactate assay (luminescence) in L132 cells, candidate substance alone or combined with a substance that causes lactic acidosis. The test is classed as cell-based. As to conditions: for activity at 50 µM: Homo sapiens. The protocol: as §1
Where [3] appears, read: A549, candidate 50 μM + berberine 10 μM, relative to berberine alone (PC).
[4] abbreviates: A549, candidate 50 μM + linezolid 200 μM, relative to linezolid alone (PC).
Setting [5] is: A549, candidate 50 μM + phenformin 100 μM, relative to phenformin alone (PC).
Setting [6] is: L132, candidate 50 μM + berberine 10 μM, relative to berberine alone (PC).
Setting [7] is: L132, candidate 50 μM + linezolid 200 μM, relative to linezolid alone (PC).
Setting [8] is: L132, candidate 50 μM + phenformin 100 μM, relative to phenformin alone (PC).
[9] abbreviates: L132, candidate 50 μM alone, no linezolid, 24 h, vs negative control, mean ± SEM.
The mark [10] stands for this setting: A549, 24 h, read-out: Luminescence intensity (%), Berberine (10 μM) −.
The mark [11] stands for this setting: A549, 24 h, read-out: Luminescence intensity (%), Linezolid (200 μM) −.
Setting [12] is: A549, 24 h, read-out: Luminescence intensity (%), Phenformin (100 μM) −.
The mark [13] stands for this setting: L132, 24 h, read-out: Luminescence intensity (%), Berberine (10 μM) −.
Where [14] appears, read: L132, 24 h, read-out: Luminescence intensity (%), Linezolid (200 μM) −.
Where [15] appears, read: L132, 24 h, read-out: Luminescence intensity (%), Phenformin (100 μM) −.
Where [16] appears, read: A549, candidate 50 μM alone, no berberine, 24 h, vs negative control, mean ± SEM, read-out: Luminescence intensity (%), Berberine (10 μM) −.
[17] abbreviates: A549, candidate 50 μM alone, no linezolid, 24 h, vs negative control, mean ± SEM, read-out: Luminescence intensity (%), Linezolid (200 μM) −.
[18] abbreviates: A549, candidate 50 μM alone, no phenformin, 24 h, vs negative control, mean ± SEM, read-out: Luminescence intensity (%), Phenformin (100 μM) −.
The mark [19] stands for this setting: L132, candidate 50 μM alone, no berberine, 24 h, vs negative control, mean ± SEM, read-out: Luminescence intensity (%), Berberine (10 μM) −.
[20] abbreviates: L132, candidate 50 μM alone, no linezolid, 24 h, vs negative control, mean ± SEM, read-out: Luminescence intensity (%), Linezolid (200 μM) −.
The mark [21] stands for this setting: L132, candidate 50 μM alone, no phenformin, 24 h, vs negative control, mean ± SEM, read-out: Luminescence intensity (%), Phenformin (100 μM) −.

Read-outs that look alike come from different tables or passages of the source.

Turning to `CCN(CC)c1ccc(C=O)cc1` [DEAB, Diethylaminobenzaldehyde], the “Lactic acid value vs. PC (%)” value in test [1] (setting [3]) amounted to 91.95%; in test [1] (setting [4]), 87.66%; in test [1] (setting [5]), 94.28%; in test [2] (setting [6]) it was 106.10%; in test [2] (setting [7]), 105.21%; in test [2] (setting [8]), 92.79%. For the same molecule, the “Lactic acid-decreasing rate vs. PC (%)” value in test [1] (setting [3]) is 8.05%; in test [1] (setting [4]), 12.34%; in test [1] (setting [5]) it was 5.72%; in test [2] (setting [6]), −6.10%; in test [2] (setting [7]), −5.21%; in test [2] (setting [8]) it was 7.21%. Also, the “Luminescence intensity (%), Berberine (10 μM) −” value stood at 96.72 ± 0.78 % in test [1] (A549, candidate 50 μM alone, no berberine, 24 h, vs negative control, mean ± SEM) and 93.41 ± 2.71 % in test [2] (L132, candidate 50 μM alone, no berberine, 24 h, vs negative control, mean ± SEM). Besides, the “Luminescence intensity (%), Linezolid (200 μM) −” value was determined as 96.72 ± 0.78 % in test [1] (A549, candidate 50 μM alone, no linezolid, 24 h, vs negative control, mean ± SEM) and 93.41±2.71% in test [2] (setting [9]). Besides, the “Luminescence intensity (%), Phenformin (100 μM) −” value amounted to 96.72 ± 0.78 % in test [1] (A549, candidate 50 μM alone, no phenformin, 24 h, vs negative control, mean ± SEM) and 93.41 ± 2.71 % in test [2] (L132, candidate 50 μM alone, no phenformin, 24 h, vs negative control, mean ± SEM). For the same molecule, in test [2] (L132, in combination with linezolid, stated in text as an increase), the “Increase of lactic acid level as compared to the positive control group” value is listed as 5.21%.
Take `O=c1c(-c2ccc(O)cc2)coc2cc(O[C@@H]3O[C@H](CO)[C@@H](O)[C@H](O)[C@H]3O)ccc12` [Daidzin]: the “Lactic acid value vs. PC (%)” value in test [1] (setting [3]) was determined as 92.49%; in test [1] (setting [4]) it was 82.45%; in test [1] (setting [5]) it was 99.76%; in test [2] (setting [6]) it was 95.94%; in test [2] (setting [7]) it was 87.80%; in test [2] (setting [8]) it was 98.19%. Further, the “Lactic acid-decreasing rate vs. PC (%)” value in test [1] (setting [3]) came out at 7.51%; in test [1] (setting [4]), 17.55%; in test [1] (setting [5]), 0.24%; in test [2] (setting [6]), 4.06%; in test [2] (setting [7]), 12.20%; in test [2] (setting [8]), 1.81%. Besides, the activity at 50 µM turned out to be 97.4 ± 1.1% in test [1] (setting [10]); 97.4 ± 1.1% in test [1] (setting [11]); 97.4 ± 1.1% in test [1] (setting [12]); 92 ± 1.14% in test [2] (setting [13]); 92 ± 1.14% in test [2] (setting [14]); 92 ± 1.14% in test [2] (setting [15]).
Turning to `CCN(CC)C(=S)SSC(=S)N(CC)CC` [Disulfiram], the “Lactic acid value vs. PC (%)” value is recorded as 75.67% in test [1] (setting [3]); 80.93% in test [1] (setting [4]); 90.83% in test [1] (setting [5]); 69.16% in test [2] (setting [6]); 87.16% in test [2] (setting [7]); 78.21% in test [2] (setting [8]). In addition, the “Lactic acid-decreasing rate vs. PC (%)” value is reported as 24.33% in test [1] (setting [3]); 19.07% in test [1] (setting [4]); 9.17% in test [1] (setting [5]); 30.84% in test [2] (setting [6]); 12.84% in test [2] (setting [7]); 21.79% in test [2] (setting [8]). For the same molecule, the activity at 50 µM in test [1] (setting [16]) is 86.1 ± 1.66%; in test [1] (setting [17]) it was 86.1 ± 1.66%; in test [1] (setting [18]), 86.1 ± 1.66%; in test [2] (setting [19]) it was 93.4 ± 2.64%; in test [2] (setting [20]), 93.4 ± 2.64%; in test [2] (setting [21]), 93.4 ± 2.64%. In addition, in test [2] (setting [9]), the “Luminescence intensity (%), Linezolid (200 μM) −” value turned out to be 93.39 ± 2.64 %.
For the molecule `Cc1cc2c(C(C)C)c(O)c(O)c(C=O)c2c(O)c1-c1c(C)cc2c(C(C)C)c(O)c(O)c(C=O)c2c1O` [Gossypol], the “Lactic acid value vs. PC (%)” value is recorded as 62.63% in test [1] (setting [3]); 67.86% in test [1] (setting [4]); 67.24% in test [1] (setting [5]); 50.96% in test [2] (setting [6]); 67.84% in test [2] (setting [7]); 51.58% in test [2] (setting [8]). The “Lactic acid-decreasing rate vs. PC (%)” value in test [1] (setting [3]) worked out at 37.37%; in test [1] (setting [4]) it was 32.14%; in test [1] (setting [5]) it was 32.76%; in test [2] (setting [6]), 49.04%; in test [2] (setting [7]) it was 32.16%; in test [2] (setting [8]), 48.42%. Further, the activity at 50 µM in test [1] (setting [10]) turned out to be 87.6 ± 1.87%; in test [1] (setting [11]), 87.6 ± 1.87%; in test [1] (setting [12]), 87.6 ± 1.87%; in test [2] (setting [13]), 84.3 ± 2.9%; in test [2] (setting [14]) it was 84.3 ± 2.9%; in test [2] (setting [15]), 84.3 ± 2.9%.
As to `O=C(O)c1cc(=O)c2ccccc2[nH]1` [Kynurenic acid], the “Lactic acid value vs. PC (%)” value came out at 101.87% in test [1] (setting [3]); 91.54% in test [1] (setting [4]); 92.58% in test [1] (setting [5]); 90.59% in test [2] (setting [6]); 93.53% in test [2] (setting [7]); 91.70% in test [2] (setting [8]). The “Lactic acid-decreasing rate vs. PC (%)” value is given as −1.87% in test [1] (setting [3]); 8.46% in test [1] (setting [4]); 7.42% in test [1] (setting [5]); 9.41% in test [2] (setting [6]); 6.47% in test [2] (setting [7]); 8.30% in test [2] (setting [8]). In addition, the activity at 50 µM in test [1] (setting [16]) was 93.9 ± 1.1%; in test [1] (setting [17]) it was 93.9 ± 1.1%; in test [1] (setting [18]), 93.9 ± 1.1%; in test [2] (setting [19]), 93.7 ± 1.3%; in test [2] (setting [20]), 93.7 ± 1.3%; in test [2] (setting [21]), 93.7 ± 1.3%.
Turning to `CCSC(=O)N1CCCCCC1` [Molinate], the “Lactic acid value vs. PC (%)” value in test [1] (setting [3]) was 105.78%; in test [1] (setting [4]), 105.88%; in test [1] (setting [5]), 91.13%; in test [2] (setting [6]), 105.04%; in test [2] (setting [7]), 125.68%; in test [2] (setting [8]), 99.16%. For the same molecule, the “Lactic acid-decreasing rate vs. PC (%)” value is given as −5.78% in test [1] (setting [3]); −5.88% in test [1] (setting [4]); 8.87% in test [1] (setting [5]); −5.04% in test [2] (setting [6]); −25.68% in test [2] (setting [7]); 0.84% in test [2] (setting [8]). For the same molecule, the activity at 50 µM in test [1] (setting [16]) came out at 110 ± 1.91%; in test [1] (setting [17]) it was 110 ± 1.91%; in test [1] (setting [18]), 110 ± 1.91%; in test [2] (setting [19]), 155 ± 3.38%; in test [2] (setting [20]), 155 ± 3.3%; in test [2] (setting [21]) it was 155 ± 3.38%.
